Patent EP4101830A1, “NOVEL DIARYLIODONIUM SALT MIXTURES AS LOW MOLECULAR WEIGHT PHOTOINITIATORS WITH MINIMIZED CRYSTALLIZATION BEHAVIOR AND ELEVATED SOLUBILITY” (FEW Chemicals GmbH, priority 2021, dated 2022)
Counter-ions that a name gives are not always drawn.

Key:
[1] = Solubility in nonpolar solvents (MEK/dowanol 1:1); assay type: physicochemical; settings: measured in MEK/dowanol 1:1
Text: Thus, efficacy of photoinitiation, when given by radicals per mass, is higher for low molecular weight mixtures of the embodiment. Furthermore, the solubility in nonpolar solvents (such as ketones, ethers, esters) is improved.

[2] = Solubility of photoinitiator in sol-gel coating and layer (visual); assay type: physicochemical; settings: sol-gel coating on PET foil; result in words
Experimental: A sol-gel coating solution consisting of 15% TEOS, 5% epoxy-modified silanes, 75% organic solvents, and 5% water was prepared according to protocols known (R.B. Figueira et al.; Journal of Coatings Technology and Research 2015, 12, 1-35). To 10 g of this coating solution were added 0.05 g of photoinitiator test compounds (see Table 5/example 7), followed by 1 hour of stirring at room temperature. This solution was applied to a PET foil at a wet thickness of 30 µm by a doctor blade device. This material was illuminated at 254 nm for 2 min or for 5 min (UV-Crosslinker device; UVP). The abrasion resistance (500 cycles) was determined with a standard method (taber-abraser) and the decrease in gloss was measured. […] TABLE 5 / Example 7

SMILES	solubility [1]	solubility in the coating and layer [2]
CC(C)(C)c1ccc([I+]c2ccc(C(C)(C)C)cc2)cc1 [comparative iodonium salt 1, bis[4-(1,1-dimethylethyl)phenyl]-iodonium tetraphenylborate]	149 g/L	
CC(C)(C)c1ccc([I+]c2ccc(C(C)(C)C)cc2)cc1.FC(F)(F)C([O][Al-]([O]C(C(F)(F)F)(C(F)(F)F)C(F)(F)F)([O]C(C(F)(F)F)(C(F)(F)F)C(F)(F)F)[O]C(C(F)(F)F)(C(F)(F)F)C(F)(F)F)(C(F)(F)F)C(F)(F)F [bis-(4-tert.-butyl-phenyl)-iodonium tetrakis(perfluoro-tert.-butoxy)aluminate]		visible precipitates and spots in the coat
